Structures are written as SMILES.

In one assay the test system is rat brain homogenate. Briefly: Peroxidation-inhibiting test of rat brain lipids (rat brain homogenate, TBA method). It counts as biochemical. Conditions: for IC50: 1 hour at 37° C., malondialdehyde by A532, read-out: IC50 (50% inhibition concentration of rat brain lipid-peroxidation). As to the method:
The lipid peroxidation-inhibiting assay with rat brain homogenate is an experimental system for evaluating damages of biological system caused by the generation of ROS (Reactive Oxygen Species). It is because the rat brain is an organ that is easily oxidized by ROS. Using this system, we evaluated antioxidative activity of compounds 1-5.
Using rat brain homogenate, we examined lipid peroxidation-inhibiting activities of the test compounds. It was performed by incubating rat brain homogenate to proceed with lipid peroxidation reactions, with each compound and with no compound (as the control), by measuring the amounts of consequently generated malondialdehyde by absorbance at 532 nm in the TBA method, and by comparing the amounts of the malondialdehyde products between them.
We preincubated IWAKI disposable test tube ([…]×100 mm) that contained 0.6 mL of 100 mM phosphate buffer (pH 7.4), 0.05 mL of each test sample-including solution, 0.1 mL of 1 mM ascorbic acid, and 0.05 mL of distilled water at 37° C. for 5 min. And 0.2 mL of 2.5% (w/v) rat brain homogenate was added to the test tube, and incubated for 1 hour at 37° C. with shaking (150 rpm). Then, 1 mL of 0.2 N HCl solution including 20% (W/V) trichloroacetic acid and 0.5% (W/V) 2-thiobarbituric acid was added to the above test tube to stop the reaction. Next, this test tube containing each reaction solution was boiled for 30 min at 100° C. to produce color. After chilled on ice, each solution from the test tube was centrifuged with 3,000 rpm for 10 min, and the absorbance of each supernatant was measured at 532 nm (A532).
The lipid peroxidation-inhibiting ratio (%) of each extracted solution (containing each flavonoid glycoside as a test compound (T)) was calculated using the following Formula 1. (1−[T−B]/[C−B])′100. Formula 1
T (test), C (control), and B (blank) are A532 of a test compound with the rat brain homogenate, the control (no compound (instead ethanol) with the homogenate), and the blank control (no compound (instead ethanol) without the homogenate (instead phosphate buffer)), respectively. The lipid peroxidation-inhibiting activity was determined as the IC50 value, representing the concentration at which 50% inhibition was observed.
(Peroxidation-Inhibiting Test of Rat Brain Lipids)

Assay [1] relates to mouse preadipocyte 3T3-L1. Nature of the assay: Differentiation-inducing test of mouse preadipocyte 3T3-L1 (Oil Red O staining). Format: cell-based. Conditions: 3T3-L1 cells, differentiation cocktail with insulin for 6 days. An excerpt: Mouse preadipocyte 3T3-L1 is used for screening of activities for lipid metabolism improvement and anti-diabetes, since 3T3-L1 is induced to the differentiation of small adipocyte under proper conditions. This differentiated fat cell produces lipid bodies that can be stained with Oil Red O. PPAR (Peroxisome Proliferator-Activated Receptor) belongs to nuclear receptor superfamily. PPARγ is importantly related to differentiation of fat cells, e.g., activated PPARγ promotes differentiation from preadipocyte to adipocyte. Furthermore, PPARγ promotes apoptosis of large fat cells. Compounds activating PPARγ (PPARγ agonists) improve insulin resistance by inducing apoptosis of large fat cells that are willing to produce TNF-α and free fatty acids, reluctant to import sugars, and induce insulin resistance. PPARγ agonists further reduce blood glucose levels, and exert anti-diabetes activity by inducing differentiation to small fat cells that are reluctant to produce TNF-α and free fatty acids, willing to import glucose in blood, and improve glucose metabolism. Currently, PPARγ agonists such as rosiglitazone (thiazolidine) are used clinically to treat patients with type-2 diabetes mellitus.
In the present EXAMPLE, we carried out to examine whether aromatic compound glycosides can promote differentiation to small fat cells, using mouse 3T3-L1 preadipocyte.
Thus, we examined the PPARγ agonistic activities of compounds 3, 4, 20, and 21, which were selected as the representatives.
The 3T3-L1 cell line was purchased from Japanese Collection of Research Bioresources Cell Bank (JCRB, Osaka, Japan). The 3T3-L1 cells were cultured in DMEM with 10% fetal calf serum (FCS, Sigma Aldrich, St Lous, USA) and antibiotics ([…]). The cells were seeded in collagen coated 12-well plates at 10,000 cells/well (1 mL) and grown to confluence for 2 days. The differentiation procedure was initiated 2 days after cells reached confluence by changing the medium to the differentiation cocktail ([…] in DMEM containing 10% FBS and antibiotics) with or without various concentrations of test compounds (positive control, thiazolidine; four aromatic compound glycosite) dissolved in DMSO (10^3-10^4 times dilutions of the stocks were used). Thereafter, the cells were grown in the differentiation cocktail for 6 days.
Then, Oil Red O (ORO) staining was performed to evaluate the ratio of the differentiated 3T3-L1 cells. […] ORO was then extracted from fixed cells with 100% isopropanol (1 mL), and OD500 values of isopropanol solution, which reflect the ORO amount imported into the cells (=the lipid (body) amount of the differentiated cells), were measured by 96-well microplate reader. […]

For the compound `O=C(/C=C/c1ccc(O)c(O)c1)Oc1ccc(-c2oc3cc(O[C@@H]4OC(C(=O)O)[C@@H](O)C(O)C4O)cc(O)c3c(=O)c2O[C@@H]2OC(CO)[C@@H](O)C(O)C2O[C@@H]2OC(CO)[C@@H](O)C(O)C2O)cc1` (stereo partly shown) [Compound 21], in the assay with rat brain homogenate, the “lipid peroxidation-inhibiting activity (in words)” value was “possess peroxidation-inhibiting activity” and the IC50 amounted to 23000 nM. In assay [1], the “activity for differentiation induction to small fat cells (adipose)” value (from here on “activity for differentiation induction”) is listed as “strong activity for differentiation induction to small fat cells”.

Regarding `CC1OC(Oc2cc(O)c3c(=O)c(O[C@@H]4OC(CO)[C@@H](O)C(O)C4O[C@@H]4OC(CO)[C@@H](O)C(O)C4O)c(-c4ccc(OC(=O)/C=C/c5ccc(O)c(O)c5)cc4)oc3c2)C(O)C(O)C1O` (stereo partly shown) [Compound 2], the IC50 with rat brain homogenate is 15000 nM.

Consider `O=C(/C=C/c1ccc(O)c(O)c1)Oc1cc(-c2oc3cc(O)cc(O)c3c(=O)c2O[C@@H]2OC(CO)[C@@H](O)[C@H](O)C2O[C@@H]2OC(CO)[C@@H](O)[C@H](O)C2O)ccc1O` (stereo partly shown) [Compound 4], for which, in the assay on rat brain homogenate, the IC50 was determined as 1100 nM. Moreover, the “activity for differentiation induction” value in assay [1] is listed as “strong activity for differentiation induction to small fat cells”.

`O=C(/C=C/c1ccc(O)c(O)c1)Oc1cc(-c2oc3cc(O[C@@H]4OC(C(=O)O)[C@@H](O)C(O)C4O)cc(O)c3c(=O)c2O[C@@H]2OC(CO)[C@@H](O)C(O)C2O[C@@H]2OC(CO)[C@@H](O)C(O)C2O)ccc1O` (stereo partly shown) [Compound 20]: in the assay on rat brain homogenate, the “lipid peroxidation-inhibiting activity (in words)” value was “possess peroxidation-inhibiting activity” and the IC50 is 1500 nM. Further, the “activity for differentiation induction” value in assay [1] is given as “strong activity for differentiation induction to small fat cells”.

On to `CC1OC(Oc2c(-c3ccc(O)c(OC(=O)/C=C/c4ccc(O)c(O)c4)c3)oc3cc(O[C@@H]4OC(CO)[C@@H](O)[C@H](O)C4O)cc(O)c3c2=O)C(O[C@@H]2OC(CO)[C@@H](O)[C@H](O)C2O)C(O)C1O` (stereo partly shown) [Compound 5], for which the IC50 in the assay on rat brain homogenate stood at 1500 nM.

As to `CC1OC(Oc2cc(O)c3c(=O)c(OC4OC(C)C(O)C(O)C4O[C@@H]4OC(CO)[C@@H](O)[C@H](O)C4O)c(-c4ccc(O)c(OC(=O)/C=C/c5ccc(O)c(O)c5)c4)oc3c2)C(O)C(O)C1O` (stereo partly shown) [Compound 3], in the assay with rat brain homogenate, the IC50 came out at 1400 nM. Moreover, the “activity for differentiation induction” value in assay [1] is recorded as “strong activity for differentiation induction to small fat cells”.

Regarding `CC1OC(Oc2cc(O)c3c(=O)c(O[C@@H]4OC(CO)[C@@H](O)C(O)C4O[C@@H]4OC(CO)[C@@H](O)C(O)C4O)c(-c4ccc(O)c(OC(=O)/C=C/c5ccc(O)c(O)c5)c4)oc3c2)C(O)C(O)C1O` (stereo partly shown) [Compound 1], the IC50 in the assay on rat brain homogenate is 1700 nM.

For the origin of these results see patent publication US12559513B2, “Aromatic glycoside and method for producing the glycoside” (CAROTENOID-PRODUCTION TECHNOLOGY CORPORATION (CaroProTech), priority 2022, dated 2026).
